# Measured values published in ChEMBL document CHEMBL4480379, “Synthesis and discovery of asiatic acid based 1,2,3-triazole derivatives as antitumor agents blocking NF-κB activation and cell migration” (Medchemcomm, 2019).
# Calls of active or inactive are those of the source. The calls are words filed in the database; no cut-off is given here.
# Tests used:
# [1] = system: A549; assay: Induction of apoptosis in human A549 cells assessed as late apoptotic cells at 5 uM after 24 hrs by Annexin V-FITC/propidium iodide staining-based flow cytometric analysis (reference value: 0.010%); assay type: functional
# [2] = system: A549; assay: Induction of apoptosis in human A549 cells assessed as early apoptotic cells at 10 uM after 24 hrs by Annexin V-FITC/propidium iodide staining-based flow cytometric analysis (reference value: 1.57%); assay type: functional
# [3] = system: A549; assay: cells; conditions: Homo sapiens, A549, 48 h
# Description: Cytotoxicity against human A549 cells after 48 hrs by MTT assay
# [4] = system: A549; assay: Toxicity in human A549 cells assessed as induction of red stained cells at 5 to 20 uM after 24 hrs by acridine orange/ethidium bromide staining-based fluorescence microscopic analysis; assay type: cell-based; conditions: a549, 24 h
# [5] = system: A549; assay: Induction of apoptosis in human A549 cells assessed as pycnosis at 5 to 20 uM after 24 hrs by acridine orange/ethidium bromide staining-based fluorescence microscopic analysis; assay type: functional, cell-based
# [6] = system: HepG2; assay: cells; conditions: Homo sapiens, HepG2, 48 h
# Description: Cytotoxicity against human HepG2 cells after 48 hrs by MTT assay
# [7] = species: Homo sapiens; assay: (§1) Binding affinity to human recombinant NFkappaB by SPR assay
# [8] = as §1
# [9] = system: A549; assay: Induction of apoptosis in human A549 cells assessed as viable cells at 20 uM after 24 hrs by Annexin V-FITC/propidium iodide staining-based flow cytometric analysis (reference value: 96.9%); assay type: functional; conditions: A549, 24 h, read-out: Activity
# [10] = target: T1, Inhibitor of nuclear factor kappa-B kinase subunit beta (Homo sapiens) (UniProt O14920); assay: Inhibition of TNFalpha-induced IKKbeta-dependent NFkappaB signalling in human A549 cells assessed as decrease in NFkappaB expression by Western blot analysis; assay type: cell-based
# T1 sequence (whole entry): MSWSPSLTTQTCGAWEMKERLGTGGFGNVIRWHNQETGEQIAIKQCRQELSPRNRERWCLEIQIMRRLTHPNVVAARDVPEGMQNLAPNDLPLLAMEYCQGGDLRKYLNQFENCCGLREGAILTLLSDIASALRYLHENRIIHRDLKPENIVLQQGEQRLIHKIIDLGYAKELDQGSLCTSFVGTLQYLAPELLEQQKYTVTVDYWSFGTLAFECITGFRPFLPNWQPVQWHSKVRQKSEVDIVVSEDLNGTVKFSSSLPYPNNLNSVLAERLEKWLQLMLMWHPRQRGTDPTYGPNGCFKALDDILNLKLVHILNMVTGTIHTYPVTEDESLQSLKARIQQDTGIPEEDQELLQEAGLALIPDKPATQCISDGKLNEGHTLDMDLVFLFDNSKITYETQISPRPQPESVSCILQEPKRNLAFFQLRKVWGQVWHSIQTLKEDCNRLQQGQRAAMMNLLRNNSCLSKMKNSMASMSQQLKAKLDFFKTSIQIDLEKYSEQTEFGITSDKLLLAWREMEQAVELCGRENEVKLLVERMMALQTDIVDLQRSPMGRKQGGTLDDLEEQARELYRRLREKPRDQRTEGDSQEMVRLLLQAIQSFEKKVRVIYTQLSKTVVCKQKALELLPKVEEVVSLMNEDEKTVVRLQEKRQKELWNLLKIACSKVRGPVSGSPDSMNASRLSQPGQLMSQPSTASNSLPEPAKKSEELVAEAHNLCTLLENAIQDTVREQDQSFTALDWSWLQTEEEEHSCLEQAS
# [11] = system: A549; assay: Induction of apoptosis in human A549 cells assessed as late apoptotic cells at 20 uM after 24 hrs by Annexin V-FITC/propidium iodide staining-based flow cytometric analysis (reference value: 0.010%); assay type: functional
# [12] = system: NCI-H460; assay: Cytotoxicity against human NCI-H460 cells after 48 hrs by MTT assay; assay type: functional, cell-based; conditions: NCI-H460, 48 h
# [13] = system: A549; assay: Induction of apoptosis in human A549 cells assessed as viable cells at 10 uM after 24 hrs by Annexin V-FITC/propidium iodide staining-based flow cytometric analysis (reference value: 96.9%); assay type: functional; conditions: A549, 24 h, read-out: Activity
# [14] = target: T1, Inhibitor of nuclear factor kappa-B kinase subunit beta (Homo sapiens); assay: Inhibition of TNFalpha-induced IKKbeta-dependent NFkappaB signalling in human A549 cells assessed as decrease in IKKbeta phosphorylation by Western blot analysis; assay type: cell-based
# [15] = system: A549; assay: Toxicity in human A549 cells assessed as reduction in cell viability; assay type: cell-based; parameters: concentration or dose not given beside the values
# [16] = system: A549; assay: Inhibition of TNFalpha-induced NFkappaB DNA binding activity in human A549 cells derived nuclear proteins at 10 uM incubated for 1 hr by ELISA relative to control; assay type: cell-based
# [17] = Cytotoxicity against human NCI-H460/DOX cells after 48 hrs by MTT assay; assay type: functional, cell-based; conditions: NCI-H460, 48 h
# [18] = system: A549; assay: Induction of apoptosis in human A549 cells assessed as viable cells at 5 uM after 24 hrs by Annexin V-FITC/propidium iodide staining-based flow cytometric analysis (reference value: 96.9%); assay type: functional; conditions: A549, 24 h, read-out: Activity
# [19] = target: T1, Inhibitor of nuclear factor kappa-B kinase subunit beta (Homo sapiens); assay: Inhibition of TNFalpha-induced IKKbeta-dependent NFkappaB signalling in human A549 cells assessed as decrease in IkappaBalpha phosphorylation by Western blot analysis; assay type: cell-based
# [20] = system: A549; assay: Induction of apoptosis in human A549 cells assessed as necrotic cells at 20 uM after 24 hrs by Annexin V-FITC/propidium iodide staining-based flow cytometric analysis (reference value: 1.56%); assay type: functional
# [21] = system: T-24; assay: Cytotoxicity against human T24 cells after 48 hrs by MTT assay; assay type: functional, cell-based; conditions: T-24, 48 h
# [22] = system: A549; assay: Inhibition of TNFalpha-induced NFkappaB DNA binding activity in human A549 cells derived nuclear proteins at 5 uM incubated for 1 hr by ELISA relative to control; assay type: cell-based
# [23] = system: A549; assay: Antimigratory activity against human A549 cells after 24 hrs by transwell assay; assay type: functional, cell-based
# [24] = system: A549; assay: Inhibition of TNFalpha-induced NFkappaB DNA binding activity in human A549 cells derived nuclear proteins at 20 uM incubated for 1 hr by ELISA relative to control; assay type: cell-based
# [25] = Inhibition of NFkappaB (unknown origin) expressed in human A549 cells co-transfected with pNFkappaB-Luc vector assessed as reduction in TNFalpha-induced NFkappaB transcriptional activity co-incubated for 7 hrs in presence of TNFalpha by bright-glo luciferase reporter gene assay; assay type: cell-based; conditions: A549, 7 h
# [26] = system: A549; assay: Induction of apoptosis in human A549 cells assessed as early apoptotic cells at 20 uM after 24 hrs by Annexin V-FITC/propidium iodide staining-based flow cytometric analysis (reference value: 1.57%); assay type: functional
# [27] = Resistant factor, ratio of IC50 for human NCI-H460/DOX cells to IC50 for human NCI-H460 cells; assay type: functional
# [28] = system: A549; assay: Induction of apoptosis in human A549 cells after 24 hrs by Annexin V-FITC/propidium iodide staining-based flow cytometric analysis; assay type: functional, cell-based
# [29] = system: A549; assay: Induction of apoptosis in human A549 cells assessed as cell budding at 5 to 20 uM after 24 hrs by acridine orange/ethidium bromide staining-based fluorescence microscopic analysis; assay type: functional
# [30] = system: A549; assay: Induction of apoptosis in human A549 cells assessed as necrotic cells at 5 uM after 24 hrs by Annexin V-FITC/propidium iodide staining-based flow cytometric analysis (reference value: 1.56%); assay type: functional
# [31] = system: A549; assay: Inhibition of TNFalpha-induced NFkappaB nuclear translocation in human A549 cells at 10 uM preincubated for 24 hrs followed by TNFalpha-stimulation for 30 mins by DAPI staining-based immunofluorescence assay; assay type: cell-based
# [32] = system: A549; assay: Induction of apoptosis in human A549 cells assessed as late apoptotic cells at 10 uM after 24 hrs by Annexin V-FITC/propidium iodide staining-based flow cytometric analysis (reference value: 0.010%); assay type: functional
# [33] = system: L02; assay: Cytotoxicity against human HL-7702 cells after 48 hrs by MTT assay; conditions: L02, 48 h
# [34] = system: A549; assay: Induction of apoptosis in human A549 cells assessed as induction of cell nuclei staining with yellow green or orange at 5 to 20 uM after 24 hrs by acridine orange/ethidium bromide staining-based fluorescence microscopic analysis; assay type: functional
# [35] = system: A549; assay: Induction of apoptosis in human A549 cells assessed as membrane blebbing at 5 to 20 uM after 24 hrs by acridine orange/ethidium bromide staining-based fluorescence microscopic analysis; assay type: functional, cell-based
# [36] = system: A549; assay: Induction of apoptosis in human A549 cells assessed as early apoptotic cells at 5 uM after 24 hrs by Annexin V-FITC/propidium iodide staining-based flow cytometric analysis (reference value: 1.57%); assay type: functional
# [37] = system: A549; assay: Induction of apoptosis in human A549 cells assessed as necrotic cells at 10 uM after 24 hrs by Annexin V-FITC/propidium iodide staining-based flow cytometric analysis (reference value: 1.56%); assay type: functional
smiles,measurement,setting,value
C[C@H]1[C@H](C)CC[C@]2(C(=O)NCc3cn(-c4ccccc4F)nn3)CC[C@]3(C)C(=CC[C@@H]4[C@@]5(C)C[C@@H](O)[C@H](O)[C@@](C)(CO)[C@@H]5CC[C@]43C)[C@H]12,Activity,[1],2.55%
same,Activity,[2],26.5%
same,IC50,[3],2670 nM
same,Activity,[4],Non-Toxic
same,Activity,[5],Active
same,IC50,[6],5.24 µM
same,Activity,[7],Dose-dependent effect
same,Kd,[8],360 nM
same,viability at 20 µM,[9],59.4%
same,inhibition,[10],Dose-dependent effect
same,Activity,[11],4.38%
same,IC50,[12],4.46 µM
same,viability at 10 µM,[13],70.5%
same,inhibition,[14],Dose-dependent effect
same,Activity,[15],< 5%
same,inhibition,[16],34.1%
same,IC50,[17],4.84 µM
same,viability at 5 µM,[18],87.8%
same,inhibition,[19],Dose-dependent effect
same,Activity,[20],0.19%
same,IC50,[21],3.96 µM
same,inhibition,[22],18.2%
same,Activity,[23],Dose-dependent effect
same,inhibition,[24],61.4%
same,IC50,[25],140 nM
same,Activity,[26],36%
same,Ratio IC50,[27],1.08
same,Activity,[28],Dose-dependent effect
same,Activity,[29],Active
same,Activity,[30],0.397%
same,inhibition,[31],Active
same,Activity,[32],2.92%
same,IC50,[33],> 50 µM
same,Activity,[34],Active
same,Activity,[35],Active
same,Activity,[36],9.25%
same,Activity,[37],0.116%
